Reference: USRE46630E1, “Substituted 4-pyridones and their use as inhibitors of neutrophil elastase activity” (Boehringer Ingelheim International GmbH, priority 2012, dated 2017)
pIC50: −log10 of the molar value.

Each compound was assayed against T1, Human neutrophil elastase (Homo sapiens, UniProt P08246) (assay: Human Neutrophil Elastase Assay). Details: Neutrophil Elastase assay; substrate MeOSuc-Ala-Ala-Pro-Val-AMC 250 μM; 15 min preincubation, 60 min incubation at room temperature; pH 7.5.
T1 construct: purchased Calbiochem 324681
T1 sequence (P08246 30-267): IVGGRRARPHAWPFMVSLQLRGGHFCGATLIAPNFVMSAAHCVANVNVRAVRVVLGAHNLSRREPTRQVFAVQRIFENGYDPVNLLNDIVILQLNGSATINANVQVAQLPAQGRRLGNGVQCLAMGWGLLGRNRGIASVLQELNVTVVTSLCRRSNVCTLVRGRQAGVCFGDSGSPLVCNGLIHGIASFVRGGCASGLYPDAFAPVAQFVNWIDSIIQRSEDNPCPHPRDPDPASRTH
Type: biochemical
In short: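 Run in 100 mM Tris, 500 mM NaCl, pH 7.5 with 0.01% BSA, with compounds prediluted in DMSO then buffer (5% DMSO final). Fluorescence was read at 380 nm excitation/460 nm emission after enzyme inactivation. Values were normalised to inactivated-enzyme (0%) and uninhibited-enzyme (100%) controls.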
`Cc1c(-c2ccnc(C(F)(F)F)c2)c(=O)c(C(=O)NCC2CCC2)cn1C(C)c1ccc(C#N)cc1` (stereo not shown) [Example 9.23] showed a pIC50 of 7.84.
For `CS(=O)(=O)c1ccc(CNC(=O)c2cn(Cc3ccc(C#N)cc3)cc(-c3cccc(C(F)(F)F)c3)c2=O)cc1` [Example 13.1, 1-(4-Cyano-benzyl)-4-oxo-5-(3-trifluoromethyl-phenyl)-1,4-dihydro-pyridine-3-carboxylic acid 4-methanesulfonyl-benzylamide], the pIC50 was 8.18.
`Cc1c(-c2cccc(C(F)(F)F)c2)c(=O)c(C(=O)NCc2ccc(S(C)(=O)=O)cc2)cn1Cc1ccc(C#N)cc1` [Example 2.12] was tested, and the pIC50 was over 9.00.
For `Cc1c(-c2cccc(C(F)(F)F)c2)c(=O)c(C(=O)NCc2ccccn2)cn1Cc1ccc(C#N)cc1` [Example 1.48], the pIC50 was 8.39.
Compound `Cc1c(-c2cccc(C(F)(F)F)c2)c(=O)c(C(=O)NC(C)C#N)cn1C(C)c1ccc(C#N)cn1` (stereo not shown) [Example 47.16] has a pIC50 of 8.21.
With `Cc1c(-c2cccc(C(F)(F)F)c2)c(=O)c(C(=O)NCC[S+](C)[O-])cn1Cc1ccc(C#N)cc1` (stereo not shown) [Example 1.13] the pIC50 was 8.18.
With `Cc1c(-c2cccc(C(F)(F)F)c2)c(=O)c(C(=O)NCCOCCOCCO)cn1Cc1ccc(C#N)cc1` [Example 1.25] the pIC50 was 7.96.
With `Cc1c(-c2ccnc(C(F)(F)F)c2)c(=O)c(C(=O)NCC(C)(C)O)cn1C(C)c1ccc(C#N)cc1` (stereo not shown) [Example 9.63] the pIC50 was 7.43.
With `Cc1c(-c2cccc(C(F)(F)F)c2)c(=O)c(C(=O)NCCS(C)(=O)=O)cn1Cc1ccc(C#N)cc1` [Example 1.66] the pIC50 was 8.21.
`Cc1c(-c2cccc(C(F)F)c2)c(=O)c(C(=O)NCc2ccc(S(C)(=O)=O)cc2)cn1C(C)c1ccc(C#N)cc1` (single isomer, unassigned) [Example 11B] gave a pIC50 of 7.71.
`COC(=O)CNC(=O)c1cn(Cc2ccc(C#N)cc2)c(C)c(-c2cccc(C(F)(F)F)c2)c1=O` [Example 1.63] was tested, and the pIC50 was 7.65.
In the case of `CCOCCNC(=O)c1cn(C(C)c2ccc(C#N)cc2)c(C)c(-c2ccnc(C(F)(F)F)c2)c1=O` (stereo not shown) [Example 9.58], the pIC50 was 8.27.
Compound `Cc1c(-c2ccnc(C(F)(F)F)c2)c(=O)c(C(=O)NCc2ccnn2C)cn1C(C)c1ccc(C#N)cc1` (stereo not shown) [Example 9.16] has a pIC50 of 8.17.
In the case of `Cc1c(-c2ccccc2)c(=O)c(C(=O)NCc2ccc(S(C)(=O)=O)cc2)cn1Cc1ccc(C#N)cc1` [Example 6.1, 1-(4-Cyano-benzyl)-6-methyl-4-oxo-5-phenyl-1,4-dihydro-pyridine-3-carboxylic acid 4-methanesulfonyl-benzylamide], the pIC50 was 7.35.
`Cc1c(-c2cccc(C(F)(F)F)c2)c(=O)c(C(N)=O)cn1Cc1ccc(C#N)cc1` [Example 1.52] showed a pIC50 of 8.02.
`Cc1c(-c2ccnc(C(F)(F)F)c2)c(=O)c(C(=O)NCc2ccc(S(C)(=O)=O)cc2)cn1Cc1ccc(C#N)cn1` [Example 5.1] was tested, and the pIC50 was 8.55.
`Cc1c(-c2ccnc(C(F)(F)F)c2)c(=O)c(C(=O)NCC(C)C)cn1C(C)c1ccc(C#N)cc1` (stereo not shown) [Example 9.53] was tested, and the pIC50 was 7.64.
For `CNC(=O)c1cn(Cc2ccc(C#N)c(F)c2)c(C)c(-c2ccnc(C(F)(F)F)c2)c1=O` [Example 43, 1-(4-Cyano-3-fluoro-benzyl)-2-methyl-4-oxo-2′-trifluoromethyl-1,4-dihydro-[3,4′]bipyridinyl-5-carboxylic acid methylamide], the pIC50 was 7.32.
In the case of `Cc1c(-c2ccnc(C(F)(F)F)c2)c(=O)c(C(=O)NCCO)cn1C(C)c1ccc(C#N)cc1` (stereo not shown) [Example 9.9], the pIC50 was 8.12.
For `Cc1c(-c2cccc(C(F)(F)F)c2)c(=O)c(C(=O)NCC#N)cn1C(C)c1ccc(C#N)cc1` (stereo not shown) [Example 7.18], the pIC50 was over 9.00.
Compound `Cc1c(-c2cccc(C(F)(F)F)c2)c(=O)c(C(=O)NCc2ccnn2C)cn1Cc1ccc(C#N)cc1` [Example 1.33] has a pIC50 of 8.43.
For `CNC(=O)c1cn(Cc2ccc(C#N)cc2F)c(C)c(-c2cccc(C(F)(F)F)c2)c1=O` [Example 3.6], the pIC50 was 7.69.
`CNC(=O)c1cn(C(C)c2ccc(C#N)cn2)c(C)c(-c2cccc(C(F)F)c2)c1=O` (stereo not shown) [Example 16, 1-[1-(5-Cyano-pyridin-2-yl)-ethyl]-5-(3-difluoromethyl-phenyl)-6-methyl-4-oxo-1,4-dihydro-pyridine-3-carboxylic acid methylamide] was tested, and the pIC50 was 8.00.
In the case of `Cc1c(-c2cccc(C(F)(F)F)c2)c(=O)c(C(=O)NCCC[N+](C)(C)C)cn1Cc1ccc(C#N)cc1` [Example 12.2, (3-{[1-(4-Cyano-benzyl)-6-methyl-4-oxo-5-(3-trifluoromethyl-phenyl)-1,4-dihydro-pyridine-3-carbonyl]-amino}-propyl)-trimethyl-ammonium chloride], the pIC50 was 7.31.
In the case of `Cc1c(-c2cccc(C(F)F)c2)c(=O)c(C(=O)NCc2ccc(S(C)(=O)=O)cc2)cn1Cc1ccc(C#N)cn1` [Example 40, 1-(5-Cyano-pyridin-2-ylmethyl)-5-(3-difluoromethyl-phenyl)-6-methyl-4-oxo-1,4-dihydro-pyridine-3-carboxylic acid 4-methanesulfonyl-benzylamide], the pIC50 was over 9.00.
`Cc1c(-c2cccc(C(F)(F)F)c2)c(=O)c(C(=O)NCc2ccc(S(C)(=O)=O)cn2)cn1Cc1ccc(Cl)cc1` [Example 4.2] was tested, and the pIC50 was 8.68.
`Cc1c(-c2cccc(C(F)(F)F)c2)c(=O)c(C(=O)NCc2ccn(C)n2)cn1Cc1ccc(C#N)cc1` [Example 1.34] gave a pIC50 of 8.05.
`Cc1c(-c2cccc(Cl)c2)c(=O)c(C(=O)NCc2ccc(S(C)(=O)=O)cc2)cn1Cc1ccc(C#N)cc1` [Example 6.8] was tested, and the pIC50 was over 9.00.
`CCNC(=O)c1cn(C(C)c2ccc(C#N)cc2)c(C)c(-c2ccnc(C(F)F)c2)c1=O` (stereo not shown) [Example 38, 1-[1-(4-Cyano-phenyl)-ethyl]-2′-difluoromethyl-2-methyl-4-oxo-1,4-dihydro-[3,4′]bipyridinyl-5-carboxylic acid ethylamide] gave a pIC50 of 7.96.
With `Cc1c(-c2cccc(C(F)(F)F)c2)c(=O)c(C(=O)NCc2cncn2C)cn1Cc1ccc(C#N)cc1` [Example 1.32] the pIC50 was 7.64.
`Cc1c(-c2ccnc(C(F)(F)F)c2)c(=O)c(C(=O)NCC2(C)COC2)cn1C(C)c1ccc(C#N)cc1` (stereo not shown) [Example 9.38] was tested, and the pIC50 was 7.48.
`CCNC(=O)c1cn(C(C)c2ccc(C#N)cn2)c(C)c(-c2cccc(C(F)(F)F)c2)c1=O` (stereo not shown) [Example 17, 1-[1-(5-Cyano-pyridin-2-yl)-ethyl]-6-methyl-4-oxo-5-(3-trifluoromethyl-phenyl)-1,4-dihydro-pyridine-3-carboxylic acid ethylamide] showed a pIC50 of 8.35.
Compound `Cc1c(-c2cncc(Cl)c2)c(=O)c(C(=O)NCc2ccc(S(C)(=O)=O)cc2)cn1Cc1ccc(C#N)cc1` [Example 6.9] has a pIC50 of 8.42.
For `CNC(=O)c1cn(Cc2ccc(C#N)nc2)c(C)c(-c2cccc(C(F)(F)F)c2)c1=O` [Example 3.2], the pIC50 was 7.27.
Compound `Cc1c(-c2cccc(C(F)(F)F)c2)c(=O)c(C(=O)NC2COC2)cn1C(C)c1ccc(C#N)cc1` (stereo not shown) [Example 7.19] has a pIC50 of 8.39.
Work on `Cc1c(-c2cccc(C(F)(F)F)c2)c(=O)c(C(=O)NC2CCNC2=O)cn1Cc1ccc(C#N)cc1` (stereo not shown) [Example 1.39] yielded a pIC50 of 8.21.
`Cc1c(-c2cccc(C(F)(F)F)c2)c(=O)c(C(=O)NCc2ccc(S(C)(=O)=O)cn2)cn1C(C)c1ccc(C#N)cc1` (stereo not shown) [Example 4.10] gave a pIC50 of over 9.00.
Work on `Cc1c(-c2cccc(C(F)(F)F)c2)c(=O)c(C(=O)NCc2ccc(S(C)(=O)=O)cc2)cn1Cc1cccc(C#N)c1` [Example 2.10] yielded a pIC50 of 7.08.
For `Cc1c(-c2cccc(C(F)F)c2)c(=O)c(C(=O)NCc2ccccn2)cn1C(C)c1ccc(C#N)cc1` (stereo not shown) [Example 8.19], the pIC50 was 8.77.
With `Cc1nnc(CNC(=O)c2cn(C(C)c3ccc(C#N)cc3)c(C)c(-c3cccc(C(F)F)c3)c2=O)o1` (stereo not shown) [Example 8.5] the pIC50 was 8.92.
Work on `Cc1c(-c2cccc(C(F)(F)F)c2)c(=O)c(C(=O)NCCN2CCNC2=O)cn1Cc1ccc(C#N)cc1` [Example 1.21] yielded a pIC50 of 7.84.
For `Cc1c(-c2cccc(C(F)(F)F)c2)c(=O)c(C(=O)NC2CCOC2)cn1C(C)c1ccc(C#N)cn1` (stereo not shown) [Example 47.9], the pIC50 was 7.17.
`Cc1c(-c2cccc(C(F)(F)F)c2)c(=O)c(C(=O)NCc2ccc(S(C)(=O)=O)cc2)cn1Cc1ccc(C#N)cn1` [Example 2.3] gave a pIC50 of over 9.00.
Work on `Cc1c(-c2ccnc(C(F)(F)F)c2)c(=O)c(C(=O)NCC(C)O)cn1C(C)c1ccc(C#N)cc1` (stereo not shown) [Example 9.61] yielded a pIC50 of 8.07.
For `Cc1c(-c2ccnc(C(F)(F)F)c2)c(=O)c(C(=O)NCCS(C)(=O)=O)cn1C(C)c1ccc(C#N)cc1` (stereo not shown) [Example 9.2], the pIC50 was 8.48.
`Cc1c(-c2ccnc(C(F)(F)F)c2)c(=O)c(C(=O)NC2CCCC2O)cn1C(C)c1ccc(C#N)cc1` (stereo not shown) [Example 9.35] gave a pIC50 of 7.58.
`Cc1c(-c2cccc(C(F)(F)F)c2)c(=O)c(C(=O)NCc2ccc(S(C)(=O)=O)cn2)cn1Cc1ccc(C#N)nc1` [Example 4.8] gave a pIC50 of 8.85.
For `CNC(=O)c1cn(C(C)c2ccc(C#N)cn2)c(C)c(-c2cccc(C(F)F)c2)c1=O` (single isomer, unassigned) [Example 16B], the pIC50 was 6.43.
`CCCNC(=O)c1cn(Cc2ccc(C#N)cc2)c(C)c(-c2cccc(C(F)(F)F)c2)c1=O` [Example 1.18] gave a pIC50 of 7.62.
Compound `Cc1c(-c2cccc(C(F)(F)F)c2)c(=O)c(C(=O)NCc2ccc(=O)[nH]c2)cn1Cc1ccc(C#N)cc1` [Example 1.42] has a pIC50 of 8.28.
In the case of `Cc1c(-c2cccc(C(F)(F)F)c2)c(=O)c(C(=O)NCCO)cn1Cc1ccc(C#N)cc1` [Example 1.1, 1-(4-Cyano-benzyl)-6-methyl-4-oxo-5-(3-trifluoromethyl-phenyl)-1,4-dihydro-pyridine-3-carboxylic acid (2-hydroxy-ethyl)-amide], the pIC50 was 7.82.
In the case of `Cc1c(-c2ccnc(C(F)(F)F)c2)c(=O)c(C(=O)NCCCN(C)C)cn1C(C)c1ccc(C#N)cc1` (stereo not shown) [Example 9.11], the pIC50 was 7.74.
